Source: patent publication US8685957B1 (Cubist Pharmaceuticals, Inc., priority 2012, dated 2014)

Assay: Hygroscopicity experiments by DVS (water vapor sorption)
Assay type: physicochemical
Conditions: relative to amorphous tazobactam arginine and amorphous tazobactam sodium
Method: Analysis by DVS was performed on a VTI SGA-100 water vapor sorption analyser using approximately 18-23 mg of each sample. Each sample was pre-dried at 60° C. for a maximum of 1 hour and then analyzed at 25° C. in 10% relative humidity (RH) steps from 5-95% (adsorption) and then 90-10% RH (desorption). The sample was equilibrated to each humidity level for a maximum of 3 hours or until constant weight was attained. Equilibrium criteria were set at less than 0.0050% weight change within 5 minutes.

C[C@]1(Cn2ccnn2)[C@H](C(=O)O)N2C(=O)CC2S1(=O)=O (stereo partly shown) [Tazobactam arginine polymorph Ia, tazobactam arginine]
hygroscopicity: low hygroscopicity
